Assay [1] has as its target T1, ΔCRD-Nluc-FZD6 (Homo sapiens, UniProt O60353).
T1 construct: amplifying ΔCRD-FZD6 (starting from D156) using SNAP-FZD6 as a template; expressed in transfected cells; host or cells: ΔFZD1–10 HEK293T cells
T1 sequence (O60353 156-706): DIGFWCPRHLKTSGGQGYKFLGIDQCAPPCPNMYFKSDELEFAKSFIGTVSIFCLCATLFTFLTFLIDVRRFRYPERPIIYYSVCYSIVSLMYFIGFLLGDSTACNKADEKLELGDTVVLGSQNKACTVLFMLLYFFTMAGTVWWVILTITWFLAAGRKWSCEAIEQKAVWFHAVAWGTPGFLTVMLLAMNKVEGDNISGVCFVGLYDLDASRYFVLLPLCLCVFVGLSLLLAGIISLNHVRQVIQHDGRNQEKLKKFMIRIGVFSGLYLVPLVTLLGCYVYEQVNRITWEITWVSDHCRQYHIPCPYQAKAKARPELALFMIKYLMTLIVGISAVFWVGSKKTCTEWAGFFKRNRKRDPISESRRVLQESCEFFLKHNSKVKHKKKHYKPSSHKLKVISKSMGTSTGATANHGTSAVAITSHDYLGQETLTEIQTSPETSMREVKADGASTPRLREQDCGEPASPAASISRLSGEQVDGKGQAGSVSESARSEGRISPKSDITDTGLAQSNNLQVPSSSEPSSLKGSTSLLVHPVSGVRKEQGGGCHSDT
The assay is described as follows: BRET-based BODIPY-cyclopamine competition binding at FZD6 lacking the CRD. To be noted: BODIPY-cyclopamine 200 nM; ΔFZD1-10 HEK293T cells; read-out: pIC50 (11) mean ± SEM, ΔCRD-Nluc-FZD6 (converted). How it is done:
After 24 h, cells were washed once with Hanks' balanced salt solution (HBSS), followed by the addition of 80 μl of HBSS. Next, 10 μl of the competitive ligand, that is, the tested SAG1.3 derivative (either in different concentrations for the concentration–response curves or at a final concentration of 10 μM for the first screens) and 10 μl of the fluorescent tracer BODIPY–cyclopamine (final concentration: 300 nM for the first screens, 200 nM for the concentration–response experiments) were added. All serial dilutions were prepared in HBSS. The cells were incubated for 90 min at 37 °C without additional CO2, after which 10 μl of luciferase substrate diluted in HBSS (furimazine; Promega, N1572, final dilution: 1:1000 for first screening) and coelenterazine h (Biosynth; final concentration: 5 μM for concentration–response experiments) were added to the cells. Following a 10 min incubation period in the dark, the measurement was started on a BMG Labtech ClarioStar or TECAN Spark multimode microplate reader, prewarmed to 37 °C. Nluc bioluminescence was detected between 460 and 490 nm (ClarioStar) or 460 and 500 nm (TECAN Spark). The emission of the fluorescent tracer was detected between 520 and 550 nm (ClarioStar) or between 520 and 560 nm (TECAN Spark). […]

Assay [2] concerns HPAF-II cells. Put plainly: Cell viability (AlamarBlue) of HPAF-II cells. The class given is cell-based, human. Particulars: one-week treatment; 10 µM. How it is done: HPAF-II cells and PANC-1 cells were seeded in DMEM at a density of 1000 cells per well into a black opaque 96-well plate (Greiner BioOne). After 1 day, the medium was exchanged with complete DMEM containing either compound 11, the porcupine inhibitor C59, or DMSO (vehicle control). After 3 days of incubation (37 °C, 5% CO2), the medium was exchanged once again with DMEM containing the same concentration of ligands or DMSO (vehicle control). Three days after (equal to 7 days after seeding), the medium was removed and 90 μl of fresh DMEM (without any ligands) were added. Last, 10 μl of AlamarBlue HS reagent (Thermo Fisher Scientific; catalog no.: A50100) were added to each well, and the cells were incubated for 4 h at 37 °C inside the incubator (5% CO2). After the incubation step, fluorescence was read using a TECAN Spark multimode microplate reader (excitation: 535 ± 25 nm, emission: 595 ± 35 nm).
For each cell viability experiment, the fluorescence measured in ligand-treated wells was normalized to the average fluorescence from wells treated with vehicle control (DMSO).

The record followed here is article PMC12605013, “SAG1.3-derived Frizzled-targeting small-molecule compounds” (The Journal of Biological Chemistry, 2025).

Each structure is given as a SMILES string.

As for `CC(=O)Nc1cccc(C(=O)NC2CCC(N(Cc3cccc(-c4ccncc4)c3)C(=O)c3sc4ccccc4c3Cl)CC2)c1` (centres unmarked) [compound 11, N-((1r,4r)-4-(3-Acetamidobenzamido)cyclohexyl)-3-chloro-N-(3-(pyridin-4-yl)benzyl)benzo[b]thiophene-2-carboxamide], in assay [1], the IC50 was 0.851 µM. In assay [2], the “Cell viability of RNF43-negative HPAF-II cells” value is given as “strongly reduced”.
